Activity calls are given as the source filed them.
Tests used:
Assay type in all cases: functional, organism-based
Mus musculus [1] = assay: Prophylactic anti-inflammatory activity in mouse model of experimental autoimmune encephalomyelitis disease assessed as reduction in disease clinical scores at 10 mg/kg, po BID for 22 days starting on day (-1) before MOG peptide immunization
Mus musculus [2] = assay: Prophylactic anti-inflammatory activity in mouse model of experimental autoimmune encephalomyelitis disease assessed as reduction in disease clinical scores at 30 mg/kg, po BID for 22 days starting on day (-1) before MOG peptide immunization
Mus musculus [3] = assay: Prophylactic anti-inflammatory activity in mouse model of experimental autoimmune encephalomyelitis disease assessed as reduction in disease clinical scores at 100 mg/kg, po for 22 days (dosed BID on days-1 to 9 and QD on days 10 to 21) starting on day (-1) before MOG peptide immunization
Mus musculus [4] = assay: Therapeutic anti-inflammatory activity in mouse model of experimental autoimmune encephalomyelitis disease assessed as reduction in disease clinical scores at 10 mg/kg, po BID for 14 days starting on day 9 after MOG peptide immunization
Mus musculus [5] = assay: Therapeutic anti-inflammatory activity in mouse model of experimental autoimmune encephalomyelitis disease assessed as reduction in disease clinical scores at 30 mg/kg, po BID for 14 days starting on day 9 after MOG peptide immunization
Mus musculus [6] = assay: Therapeutic anti-inflammatory activity in mouse model of experimental autoimmune encephalomyelitis disease assessed as reduction in disease clinical scores at 100 mg/kg, po for 14 days ( dosed BID on days 9 to 13 and QD on day 14 to 23 starting on day 9 after MOG peptide immunization
Rattus norvegicus [7] = assay: Therapeutic anti-inflammatory activity in rat model of experimental autoimmune encephalomyelitis disease assessed as reduction in disease severity clinical scores at 10 to 50 mg/kg, po BID starting on day 9 after MOG peptide immunization
Mus musculus [8] = assay: Therapeutic anti-inflammatory activity in mouse model of collagen-induced arthritis disease assessed as reduction in cumulative arthritis scores at 10 to 100 mg/kg, po BID for 21 days starting on day 20 after immunization
Mus musculus [9] = assay: Therapeutic anti-inflammatory activity in mouse model of collagen-induced arthritis disease assessed as effect on ankle thickness at 10 to 100 mg/kg, po BID for 21 days starting on day 20 after immunization
Rattus norvegicus [10] = assay: Therapeutic anti-inflammatory activity in rat model of collagen-induced arthritis disease assessed as reduction in cumulative arthritis scores at 10 to 25 mg/kg, po BID for 21 days starting on day 11 after immunization
Rattus norvegicus [11] = assay: Therapeutic anti-inflammatory activity in rat model of collagen-induced arthritis disease assessed as reduction in cumulative arthritis scores at 50 mg/kg, po QD for 21 days starting on day 11 after immunization
Rattus norvegicus [12] = assay: Therapeutic anti-inflammatory activity in rat model of collagen-induced arthritis disease assessed as effect on ankle thickness by measuring water displacement at 10 to 25 mg/kg, po BID for 21 days starting on day 11 after immunization
Rattus norvegicus [13] = assay: Therapeutic anti-inflammatory activity in rat model of collagen-induced arthritis disease assessed as effect on ankle thickness by measuring water displacement at 50 mg/kg, po QD for 21 days starting on day 11 after immunization
Mus musculus [14] = assay: Anti-inflammatory activity in mouse model of concanavalin A-induced hepatitis assessed as reduction in TNFalpha level at 10 to 100 mg/kg, po dosed dosed 16 hrs and 1 hr before and 8 hrs after concanavalin A challenge
Mus musculus [15] = assay: Anti-inflammatory activity in mouse model of concanavalin A-induced hepatitis assessed as reduction in IL6 level at 10 to 100 mg/kg, po dosed dosed 16 hrs and 1 hr before and 8 hrs after concanavalin A challenge
Mus musculus [16] = assay: Anti-inflammatory activity in mouse model of concanavalin A-induced hepatitis assessed as reduction in MCP1 level at 10 to 100 mg/kg, po dosed dosed 16 hrs and 1 hr before and 8 hrs after concanavalin A challenge
Mus musculus [17] = assay: Anti-inflammatory activity in mouse model of concanavalin A-induced hepatitis assessed as effect on IFNgamma level at 10 to 100 mg/kg, po dosed dosed 16 hrs and 1 hr before and 8 hrs after concanavalin A challenge
Mus musculus [18] = assay: Anti-inflammatory activity in mouse model of concanavalin A-induced hepatitis assessed as reduction in ALT level at 10 to 100 mg/kg, po dosed dosed 16 hrs and 1 hr before and 8 hrs after concanavalin A challenge
Mus musculus [19] = assay: Anti-inflammatory activity in mouse model of concanavalin A-induced hepatitis assessed as reduction in AST level at 10 to 100 mg/kg, po dosed dosed 16 hrs and 1 hr before and 8 hrs after concanavalin A challenge
Rattus norvegicus [20] = assay: Therapeutic anti-inflammatory activity in rat model of experimental autoimmune encephalomyelitis disease assessed as reduction in disease severity clinical scores at 0.3 to 10 mg/kg, po QD starting on day 10 after MOG peptide immunization
Mus musculus [21] = assay: Anti-inflammatory activity in mouse model of concanavalin A-induced hepatitis assessed as reduction in TNFalpha level at 1 to 10 mg/kg, po dosed dosed 16 hrs and 1 hr before and 8 hrs after concanavalin A challenge
Mus musculus [22] = assay: Anti-inflammatory activity in mouse model of concanavalin A-induced hepatitis assessed as reduction in IL6 level at 1 to 10 mg/kg, po dosed dosed 16 hrs and 1 hr before and 8 hrs after concanavalin A challenge
Mus musculus [23] = assay: Anti-inflammatory activity in mouse model of concanavalin A-induced hepatitis assessed as reduction in MCP1 level at 1 to 10 mg/kg, po dosed dosed 16 hrs and 1 hr before and 8 hrs after concanavalin A challenge
Mus musculus [24] = assay: Anti-inflammatory activity in mouse model of concanavalin A-induced hepatitis assessed as effect on IFNgamma level at 1 to 10 mg/kg, po dosed dosed 16 hrs and 1 hr before and 8 hrs after concanavalin A challenge
Mus musculus [25] = assay: Anti-inflammatory activity in mouse model of concanavalin A-induced hepatitis assessed as reduction in ALT level at 1 to 10 mg/kg, po dosed dosed 16 hrs and 1 hr before and 8 hrs after concanavalin A challenge
Mus musculus [26] = assay: Anti-inflammatory activity in mouse model of concanavalin A-induced hepatitis assessed as reduction in AST level at 1 to 10 mg/kg, po dosed dosed 16 hrs and 1 hr before and 8 hrs after concanavalin A challenge
Mus musculus [27] = assay: Therapeutic anti-inflammatory activity in mouse model of experimental autoimmune encephalomyelitis disease assessed as reduction in disease clinical scores at 3 to 10 mg/kg, sc BID for 12 days starting on day 9 after MOG peptide immunization
Mus musculus [28] = assay: Therapeutic anti-inflammatory activity in mouse model of experimental autoimmune encephalomyelitis disease assessed as reduction in disease clinical scores at 3 to 30 mg/kg, po BID for 21 days starting on day 9 after MOG peptide immunization
Mus musculus [29] = assay: Therapeutic anti-inflammatory activity in mouse model of collagen-induced arthritis disease assessed as reduction in cumulative arthritis scores at 10 to 30 mg/kg, sc BID for 3 weeks days starting on day 20 after collagen immunization
Mus musculus [30] = assay: Therapeutic anti-inflammatory activity in mouse model of collagen-induced arthritis disease assessed as effect on ankle thickness at 10 to 30 mg/kg, sc BID for 3 weeks days starting on day 20 after collagen immunization
Mus musculus [31] = assay: Therapeutic anti-inflammatory activity in mouse model of collagen-induced arthritis disease assessed as reduction in cumulative arthritis scores at 10 to 50 mg/kg, po BID for 3 weeks days starting on day 20 after collagen immunization
Mus musculus [32] = assay: Therapeutic anti-inflammatory activity in mouse model of collagen-induced arthritis disease assessed as effect on ankle thickness at 10 to 50 mg/kg, po BID for 3 weeks days starting on day 20 after collagen immunization

Measured: Activity

CN(C1CC1)S(=O)(=O)c1ccc(-c2cnc(N)c(-c3ccc4c(c3)CCNC4=O)c2)cc1
active: Mus musculus [1] | Mus musculus [2] | Mus musculus [3] | Mus musculus [4] | Mus musculus [5] | Mus musculus [6] | Rattus norvegicus [7] Dose-dependent effect | Mus musculus [8] | Mus musculus [9] | Rattus norvegicus [10] | Rattus norvegicus [11] | Rattus norvegicus [12] | Rattus norvegicus [13] | Mus musculus [14] | Mus musculus [15] | Mus musculus [16] | Mus musculus [17] | Mus musculus [18] | Mus musculus [19]

N#CC1(c2ccc(-c3cnc(N)c(-c4ccc5c(c4)CCNC5=O)n3)cc2)CC1
active: Rattus norvegicus [20] | Mus musculus [21] | Mus musculus [22] | Mus musculus [23] | Mus musculus [24] | Mus musculus [25] | Mus musculus [26]

CN(C1CC1)S(=O)(=O)c1ccc(-c2cnc(N)c(-c3ccc4c(c3)CCNC4=O)n2)cc1
active: Mus musculus [27] Dose-dependent effect | Mus musculus [28] Dose-dependent effect | Mus musculus [29] | Mus musculus [30] | Mus musculus [31] | Mus musculus [32]

Source: ChEMBL document CHEMBL4476879, “MST1 kinase inhibitors and methods of their use” (2013)
